In patent US20220125959A1, “PROSTATE-SPECIFIC MEMBRANE ANTIGEN (PSMA) INHIBITORS AS DIAGNOSTIC AND RADIONUCLIDE THERAPEUTIC AGENTS” (FIVE ELEVEN PHARMA INC., priority 2019, published 2022):
“And” between values parts separate entries of the source, which are not always exact repeats. Equal values may be shown once.

Experiments:
[1] = Stability of injected doses after formulation; format: physicochemical; conditions: at 48 hr after formulation
Description: ^68Ga labeling: To 15 nmole ligand 4 (1 mg/mL DMSO) were added 20 μL of 2.0 N NaOAc, 500 μL ^68Ga-solution (2.25 mCi). The reaction was heated in a heating block at 90° C. for 10 minutes in a 3 mL closed vial. After cooling, the sample was analyzed by HPLC (HPLC: Eclise XDB C18 150×4.6 mm, gradient, 2 mL/min; A: 0.1% TFA in water; B: 0.1% TFA in ACN: 0-2 min 100% A; 2-4 min: from 0% to 100% B; 4-9 min: 100% B; 9-10 min: from 100% to 0% B). Radiochemical purity of [^68Ga]4 was >99% RCP (FIG. 1) and injected doses were stable at 2 hr after formulation.
(§1) ^177Lu labeling: To 10 μg ligand (1 mg/mL DMSO) were added 15 μL of 2.0 N NaOAc, 400 μL 0.05 N HCl, and 20 μL ^177Lu-solution (780 μCi (Capintec setting 450 (reading×10)). The reaction was heated with a heating block at 95° C. for 1 hour in a 3 mL closed vial. After cooling, the sample was analyzed by HPLC (HPLC: Eclipse XDB-C18 150×4.6 mm, gradient, 1 mL/min; A: 0.1% TFA in water; B: 0.1% TFA in ACN: 0-4 min A/B 85/15%; 4-11 min: from 85/15 to 30/70%; 11-14 min: from 30/70% to 85/15%). Radiochemical purity of [^177Lu]4 (FIG. 2) and [^177Lu]7 was >98% and injected doses were stable at 48 hr after formulation.
(§2) For iv injection 150 μL of labeled solution was diluted with saline to 3.75mL. Mice were injected with 150 μL of formulated dose. Injected radioactivity was 100 μCi and PSMA ligand amount was constant at 0.72 nmole/mouse.

[2] = test system: PC3-PIP (PSMA positive) and PC-3 tumors (PSMA negative); assay: Biodistribution of 177Lu labeled compounds 4 and 7 in tumor bearing nude mice; format: in vivo, CD-1 male nude mice
Description: as §1, §2
Biodistribution of [^68Ga]4, [^177Lu]4 and [^177Lu]7 was determined in nude mice bearing PIP PC3 (PSMA positive) and PC3 (PSMA negative) tumors on the left and right shoulder, respectively, over a period of 192 h (Table 3a, 3b and 3c). […] The uptake in PC3 tumors (PSMA negative) of both ligands, [^177Lu]4 and [^177Lu]7, was clearly much lower than those of PC-3 PIP tumors (PSMA positive).

[3] = test system: PSMA-negative cell line, PC3; assay: In vitro cell uptake, PC3 cells; format: cell-based; conditions: PC3 (do not express PSMA), 60 min
Description: (§3) To determine the cell uptakes of the [^177Lu] labelled ligands, 5×10^5 cells/well were grown in 12-well plates in 1 mL of medium for 48 h. The cells were washed twice with PBS, and 900 μL fresh media were added. Radiolabelled ligand was added and the PSMA-inhibitor (2-PMPA) was applied in a final concentration of 10 μM to determine unspecific binding. All samples were prepared in triplicate. Following the incubation at 37° C., cells were washed twice to remove unbound activity and afterwards lysed in 1 mL of 0.5 M NaOH. Activity was measured in a gamma counter. Aliquots of the solution added to the cells were also measured for the calculation of the cellular uptake as % ID.

[4] = test system: PSMA-positive cell line, PIP PC3; assay: In vitro cell uptake, PIP PC3 cells; format: cell-based
Description: as §3, with “Radiolabelled ligand was added and the PSMA-inhibitor (2-PMPA) was applied in a final concentration of 10 μM to determine unspecific binding.” left out

O=C(O)CCC(C(=O)O)N1CCN(CC(=O)O)CCN(C(CCC(=O)NCC(=O)N[C@@H](Cc2ccc(OCC(=O)N[C@@H](Cc3ccccc3)C(=O)NCCCC[C@H](NC(=O)N[C@@H](CCC(=O)O)C(=O)O)C(=O)O)cc2)C(=O)O)C(=O)O)CCN(CC(=O)O)CC1.[177Lu] (stereo partly shown) [[^177Lu]4]
Stability of injected doses [1]: stable
Biodistribution: Blood ([2]; 1 hr): 0.27 ± 0.07 % dose/g
Biodistribution: Bone ([2]; 1 hr): 0.15 ± 0.05 % dose/g
Biodistribution: Brain ([2]; 1 hr): 0.02 ± 0.01 % dose/g
Biodistribution: Heart ([2]; 1 hr): 0.17 ± 0.03 % dose/g
Biodistribution: Intestine ([2]; 1 hr): 0.19 ± 0.08 % dose/g
Biodistribution: Kidney ([2]; 1 hr): 45.59 ± 20.51 % dose/g
Biodistribution: Liver ([2]; 1 hr): 0.18 ± 0.05 % dose/g
Biodistribution: Lung ([2]; 1 hr): 0.63 ± 0.13 % dose/g
Biodistribution: Muscle ([2]; 1 hr): 0.18 ± 0.06 % dose/g
Biodistribution: PC3 tumor ([2]; 1 hr): 1.13 ± 0.61 % dose/g
Biodistribution: PIP PC3 tumor ([2]; 1 hr): 15.27 ± 2.93 % dose/g
Biodistribution: Pancreas ([2]; 1 hr): 0.43 ± 0.20 % dose/g
Biodistribution: Skin ([2]; 1 hr): 0.35 ± 0.07 % dose/g
Biodistribution: Spleen ([2]; 1 hr): 1.42 ± 1.44 % dose/g
Biodistribution: Stomach ([2]; 1 hr): 0.20 ± 0.10 % dose/g
Biodistribution: Blood ([2]; 4 hrs): 0.02 % dose/g and 0.02 ± 0.01 % dose/g
Biodistribution: Bone ([2]; 4 hrs): 0.05 ± 0.01 % dose/g
Biodistribution: Brain ([2]; 4 hrs): 0.01 ± 0.00 % dose/g
Biodistribution: Heart ([2]; 4 hrs): 0.11 ± 0.07 % dose/g
Biodistribution: Intestine ([2]; 4 hrs): 0.21 ± 0.11 % dose/g
Biodistribution: Kidney ([2]; 4 hrs): 21.17 ± 5.08 % dose/g
Biodistribution: Liver ([2]; 4 hrs): 0.09 ± 0.03 % dose/g
Biodistribution: Lung ([2]; 4 hrs): 0.20 ± 0.05 % dose/g
Biodistribution: Muscle ([2]; 4 hrs): 0.05 ± 0.01 % dose/g
Biodistribution: PC3 tumor ([2]; 4 hrs): 0.28 ± 0.08 % dose/g
Biodistribution: PIP PC3 tumor ([2]; 4 hrs): 22.38±3.50 % dose/g
Biodistribution: Pancreas ([2]; 4 hrs): 0.18 ± 0.10 % dose/g
Biodistribution: Skin ([2]; 4 hrs): 0.12 ± 0.05 % dose/g
Biodistribution: Spleen ([2]; 4 hrs): 0.53 ± 0.26 % dose/g
Biodistribution: Stomach ([2]; 4 hrs): 0.12 ± 0.02 % dose/g
Biodistribution: Blood ([2]; 24 hrs (1 day)): 0.002 ± 0.000 % dose/g
Biodistribution: Bone ([2]; 24 hrs (1 day)): 0.022 ± 0.010 % dose/g
Biodistribution: Brain ([2]; 24 hrs (1 day)): 0.006 ± 0.001 % dose/g
Biodistribution: Heart ([2]; 24 hrs (1 day)): 0.011 ± 0.002 % dose/g
Biodistribution: Intestine ([2]; 24 hrs (1 day)): 0.132 ± 0.114 % dose/g
Biodistribution: Kidney ([2]; 24 hrs (1 day)): 2.291 ± 0.761 % dose/g
Biodistribution: Liver ([2]; 24 hrs (1 day)): 0.036 ± 0.003 % dose/g
Biodistribution: Lung ([2]; 24 hrs (1 day)): 0.024 ± 0.005 % dose/g
Biodistribution: Muscle ([2]; 24 hrs (1 day)): 0.012 ± 0.003 % dose/g
Biodistribution: PC3 tumor ([2]; 24 hrs (1 day)): 0.071 ± 0.010 % dose/g
Biodistribution: PIP PC3 tumor ([2]; 24 hrs (1 day)): 11.29 ± 2.62 % dose/g
Biodistribution: Pancreas ([2]; 24 hrs (1 day)): 0.015 ± 0.004 % dose/g
Biodistribution: Skin ([2]; 24 hrs (1 day)): 0.059 ± 0.029 % dose/g
Biodistribution: Spleen ([2]; 24 hrs (1 day)): 0.047 ± 0.005 % dose/g
Biodistribution: Stomach ([2]; 24 hrs (1 day)): 0.076 ± 0.026 % dose/g
Biodistribution: Blood ([2]; 48 hrs (2 days)): 0.003 ± 0.002 % dose/g
Biodistribution: Bone ([2]; 48 hrs (2 days)): 0.030 ± 0.010 % dose/g
Biodistribution: Brain ([2]; 48 hrs (2 days)): 0.006 ± 0.002 % dose/g
Biodistribution: Heart ([2]; 48 hrs (2 days)): 0.010 ± 0.000 % dose/g
Biodistribution: Intestine ([2]; 48 hrs (2 days)): 0.059 ± 0.036 % dose/g
Biodistribution: Kidney ([2]; 48 hrs (2 days)): 2.359 ± 1.504 % dose/g
Biodistribution: Liver ([2]; 48 hrs (2 days)): 0.069 ± 0.067 % dose/g
Biodistribution: Lung ([2]; 48 hrs (2 days)): 0.032 ± 0.028 % dose/g
Biodistribution: Muscle ([2]; 48 hrs (2 days)): 0.006 ± 0.003 % dose/g
Biodistribution: PC3 tumor ([2]; 48 hrs (2 days)): 0.080 ± 0.034 % dose/g
Biodistribution: PIP PC3 tumor ([2]; 48 hrs (2 days)): 13.98 ± 6.41 % dose/g
Biodistribution: Pancreas ([2]; 48 hrs (2 days)): 0.011 ± 0.001 % dose/g
Biodistribution: Skin ([2]; 48 hrs (2 days)): 0.034 ± 0.015 % dose/g
Biodistribution: Spleen ([2]; 48 hrs (2 days)): 0.133 ± 0.173 % dose/g
Biodistribution: Stomach ([2]; 48 hrs (2 days)): 0.032 ± 0.014 % dose/g
Biodistribution: Blood ([2]; 96 hrs (4 days)): 0.001 ± 0.000 % dose/g
Biodistribution: Bone ([2]; 96 hrs (4 days)): 0.043 ± 0.038 % dose/g
Biodistribution: Brain ([2]; 96 hrs (4 days)): 0.006 ± 0.001 % dose/g
Biodistribution: Heart ([2]; 96 hrs (4 days)): 0.011 ± 0.006 % dose/g
Biodistribution: Intestine ([2]; 96 hrs (4 days)): 0.040 ± 0.028 % dose/g
Biodistribution: Kidney ([2]; 96 hrs (4 days)): 0.623 ± 0.072 % dose/g
Biodistribution: Liver ([2]; 96 hrs (4 days)): 0.031 ± 0.003 % dose/g
Biodistribution: Lung ([2]; 96 hrs (4 days)): 0.020 ± 0.009 % dose/g
Biodistribution: Muscle ([2]; 96 hrs (4 days)): 0.006 ± 0.002 % dose/g
Biodistribution: PC3 tumor ([2]; 96 hrs (4 days)): 0.047 ± 0.012 % dose/g
Biodistribution: PIP PC3 tumor ([2]; 96 hrs (4 days)): 6.90 ± 1.87 % dose/g
Biodistribution: Pancreas ([2]; 96 hrs (4 days)): 0.022 ± 0.011 % dose/g
Biodistribution: Skin ([2]; 96 hrs (4 days)): 0.032 ± 0.019 % dose/g
Biodistribution: Spleen ([2]; 96 hrs (4 days)): 0.033 ± 0.015 % dose/g
Biodistribution: Stomach ([2]; 96 hrs (4 days)): 0.030 ± 0.002 % dose/g
Biodistribution: Blood ([2]; 192 hrs (8 days)): 0.001 ± 0.000 % dose/g
Biodistribution: Bone ([2]; 192 hrs (8 days)): 0.042 ± 0.035 % dose/g
Biodistribution: Brain ([2]; 192 hrs (8 days)): 0.003 ± 0.001 % dose/g
Biodistribution: Heart ([2]; 192 hrs (8 days)): 0.005 ± 0.000 % dose/g
Biodistribution: Intestine ([2]; 192 hrs (8 days)): 0.162 ± 0.087 % dose/g
Biodistribution: Kidney ([2]; 192 hrs (8 days)): 0.177 ± 0.009 % dose/g
Biodistribution: Liver ([2]; 192 hrs (8 days)): 0.021 ± 0.005 % dose/g
Biodistribution: Lung ([2]; 192 hrs (8 days)): 0.006 ± 0.003 % dose/g
Biodistribution: Muscle ([2]; 192 hrs (8 days)): 0.003 ± 0.003 % dose/g
Biodistribution: PC3 tumor ([2]; 192 hrs (8 days)): 0.022 ± 0.002 % dose/g
Biodistribution: PIP PC3 tumor ([2]; 192 hrs (8 days)): 4.21 ± 1.03 % dose/g
Biodistribution: Pancreas ([2]; 192 hrs (8 days)): 0.003 ± 0.001 % dose/g
Biodistribution: Skin ([2]; 192 hrs (8 days)): 0.011 ± 0.003 % dose/g
Biodistribution: Spleen ([2]; 192 hrs (8 days)): 0.032 ± 0.010 % dose/g
Biodistribution: Stomach ([2]; 192 hrs (8 days)): 0.209 ± 0.131 % dose/g
Uptake in PC3 tumors (PSMA negative) versus PC-3 PIP tumors (PSMA positive) ([2]; mouse, in vivo): much lower
In vitro cell uptake [3]: 0.4 % ID per 5 × 10^5 cells
Uptakes compared with reference ligand [177Lu]PSMA-617 ([4]; PIP PC3): much higher uptakes
In vitro cell uptake ([4]; PIP PC3, 5 min): 4.0 % ID per 5 × 10^5 cells
In vitro cell uptake ([4]; PIP PC3, 15 min): 7.5 % ID per 5 × 10^5 cells
In vitro cell uptake ([4]; PIP PC3, 30 min): 11.2 % ID per 5 × 10^5 cells
In vitro cell uptake ([4]; PIP PC3, 60 min): 13.4 % ID per 5 × 10^5 cells
In vitro cell uptake ([4]; PIP PC3, 60 min, with PSMA inhibitor (2-PMPA, 2 uM)): 0.9 % ID per 5 × 10^5 cells
In vitro cell uptake ([4]; PIP PC3, 120 min): 14.9 % ID per 5 × 10^5 cells
